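Five concentrations, 48 hours, 96-well plates. At the GI50, growth is halved. TGI denotes the concentration required for complete inhibition of growth.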
Key:
Assay in all cases: NCI tumour cell line growth inhibition, 48 h
NCI-H23 lung = test system: NCI-H23 lung
SK-MEL-5 melanoma = test system: SK-MEL-5 melanoma
HCT-15 colon = test system: HCT-15 colon
SR leukemia = test system: SR leukemia
IGROV1 ovarian = test system: IGROV1 ovarian
NCI-H460 lung = test system: NCI-H460 lung
COLO 205 colon = test system: COLO 205 colon
UO-31 renal = test system: UO-31 renal
SF-295 CNS = test system: SF-295 CNS
UACC-257 melanoma = test system: UACC-257 melanoma

Structure (SMILES) | GI50 (NCI-H23 lung) | TGI (NCI-H23 lung) | GI50 (SK-MEL-5 melanoma) | TGI (SK-MEL-5 melanoma) | GI50 (HCT-15 colon) | TGI (HCT-15 colon) | GI50 (SR leukemia) | TGI (SR leukemia) | GI50 (IGROV1 ovarian) | TGI (IGROV1 ovarian) | GI50 (NCI-H460 lung) | TGI (NCI-H460 lung) | GI50 (COLO 205 colon) | TGI (COLO 205 colon) | GI50 (UO-31 renal) | TGI (UO-31 renal) | GI50 (SF-295 CNS) | TGI (SF-295 CNS) | GI50 (UACC-257 melanoma) | TGI (UACC-257 melanoma)
O=C1c2cccnc2-c2nc(-c3ccncc3)cc3c2c1nc1ccccc13 | 12.5 µM | 28 µM | 14.1 µM | 36.5 µM | 10.2 µM | 21.8 µM | 2.94 µM | > 100 µM | 4.67 µM | 28.8 µM | 6.29 µM | 19.5 µM | 30 µM | 72.6 µM | 33.2 µM | > 100 µM | 15.1 µM | 28.4 µM | > 100 µM | > 100 µM
CC1(C)OC2COC3(CNO)OC(C)(C)OC3C2O1 (stereo not given) |  | > 100 µM |  | > 100 µM |  | > 100 µM |  |  |  | > 100 µM |  | > 100 µM |  | > 100 µM |  | > 100 µM |  | > 100 µM |  | > 100 µM
CC1CCCc2c1nn(C(=O)/C=C(\N)c1ccccc1)c2N (stereo not given) | 5.5 µM | 92.9 µM | 4.35 µM | 45.7 µM | 5.85 µM | > 100 µM |  |  | 12.5 µM | > 100 µM | 4.23 µM | > 100 µM | 10.1 µM | 79.1 µM | 3.92 µM | > 100 µM | 30.6 µM | > 100 µM | 25.6 µM | > 100 µM
C=CCC1[C@@H](C(C)(C)C(C(C)=O)C(=O)C(=O)OC)OC(C(C)(C)C)N1C(=O)OC (stereo not given in full) |  | > 100 µM |  | > 100 µM |  | > 100 µM |  |  |  |  |  | > 100 µM |  | > 100 µM |  | > 100 µM |  | > 100 µM |  | > 100 µM
CCOC(=O)c1ccc(N[C@@H]2c3cc4c(cc3C(C3=CC(=O)C(=O)C(OC)=C3)[C@H]3C(=O)OCC32)OCO4)cc1 (stereo not given in full) |  | 4.21 µM |  | 11.7 µM |  | 7.82 µM |  |  |  | 28.5 µM |  | 5.84 µM |  | 28.3 µM |  | 9.43 µM |  | 6.87 µM |  | > 82.6 µM
Cc1ccc2c(c1)Sc1ccc(N=NN(C)C)cc1N2C |  | > 100 µM |  | > 100 µM |  | > 100 µM |  | > 100 µM |  | > 100 µM |  | > 100 µM |  | > 100 µM |  | > 100 µM |  | > 100 µM |  | 
Cl[Si]1(Cl)Oc2ccccc2O[Si](Cl)(Cl)Oc2ccccc2O1 |  | 84.6 µM |  | 27 µM |  | > 100 µM |  |  |  | > 100 µM |  | 65.9 µM |  | 59.7 µM |  |  |  | 98.2 µM |  | 
O=c1ncccn1C1C=C(CO)C(O)C1O (stereo not given) |  | > 50 µM |  | > 50 µM |  | > 50 µM |  |  |  |  |  | > 50 µM |  | > 50 µM |  | > 50 µM |  | > 50 µM |  | > 50 µM
NC(N)=NS(=O)(=O)c1ccc(NC(=O)c2cccc3c(Nc4ccc(S(N)(=O)=O)cc4)c4ccccc4nc23)cc1 |  | > 100 µM |  | > 100 µM |  | > 100 µM |  |  |  | > 100 µM |  | > 100 µM |  | > 100 µM |  | > 100 µM |  | > 100 µM |  | > 100 µM
CCCCCCCCCCCCCC(=O)OCC1OC(=O)CC1O (stereo not given) |  | > 100 µM |  | > 100 µM |  | 74.5 µM |  |  |  | > 100 µM |  | > 100 µM |  | > 100 µM |  | 81.6 µM |  | > 100 µM |  | > 100 µM
CC(=O)[O-].CC(=O)[O-].CC(=O)[O-].CC(=O)[O-].[Mo+2].[Mo+2] | > 100 µM | > 100 µM | > 100 µM | > 100 µM | > 100 µM | > 100 µM |  |  | > 100 µM | > 100 µM | > 100 µM | > 100 µM | > 100 µM | > 100 µM | > 100 µM | > 100 µM | > 100 µM | > 100 µM | > 100 µM | > 100 µM
CCOC(=O)/C(=C/c1cccc(OC)c1)N(CC)CC |  | > 100 µM |  | > 100 µM |  | > 100 µM |  | > 100 µM |  | > 100 µM |  |  |  | > 100 µM |  | > 100 µM |  | > 100 µM |  | > 100 µM
OC(c1ccc(Br)cc1)(c1cccs1)C1CC1 (stereo not given) |  | 56.9 µM |  | 33 µM |  | 65.7 µM |  |  |  | 42.9 µM |  | 57.8 µM |  | 36.6 µM |  | 48.1 µM |  | 44.6 µM |  | 71.3 µM
CC(=O)OC1COC(n2c(=S)n(-c3ccccc3)c(=O)c3cc(Br)ccc32)C(OC(C)=O)C1OC(C)=O (stereo not given) |  | > 100 µM |  | > 100 µM |  | > 100 µM |  |  |  | > 100 µM |  | > 100 µM |  | > 100 µM |  | > 100 µM |  | > 100 µM |  | > 100 µM
COc1cc2cnc3c4ccccc4ccc3c2cc1OC |  | > 100 µM |  | > 100 µM |  |  |  |  |  | > 100 µM |  | > 100 µM |  | > 100 µM |  | > 100 µM |  | > 100 µM |  | > 100 µM
CCOC(=O)C(=O)Nc1ccccc1C(F)(F)F |  | > 100 µM |  |  |  | > 100 µM |  | > 100 µM |  | > 100 µM |  | > 100 µM |  | > 100 µM |  | > 100 µM |  | > 100 µM |  | > 100 µM
c1ccc(Cn2cnc3ccc(-c4nc(-c5ccc6c(c5)ncn6C5CCCCC5)cn5ccnc45)cc32)cc1 | 1.88 µM | 4.49 µM |  |  |  |  | 1.68 µM | > 100 µM | 2.14 µM | > 100 µM | 2.3 µM | 5.66 µM |  |  | 1.72 µM | 4.55 µM |  |  |  | 
OC(CN1CC1)C(O)CN1CC1 (stereo not given) | > 50 µg/mL | > 50 µg/mL | > 50 µg/mL | > 50 µg/mL | > 50 µg/mL | > 50 µg/mL | > 50 µg/mL | > 50 µg/mL | > 50 µg/mL | > 50 µg/mL | > 50 µg/mL | > 50 µg/mL |  |  | > 50 µg/mL | > 50 µg/mL | > 50 µg/mL | > 50 µg/mL | > 50 µg/mL | > 50 µg/mL
C[C@H]1[C@H](C)CC[C@]2(C(=O)NCCNCCN)CC[C@]3(C)C(=CC[C@@H]4[C@@]5(C)CCC(=O)C(C)(C)[C@@H]5CC[C@]43C)[C@H]12 | 2.8 µM | 8.3 µM | 1.8 µM | 3.23 µM | 1.73 µM | 3.29 µM |  |  | 1.71 µM | 3.17 µM | 1.77 µM | 3.28 µM |  |  | 1.53 µM | 2.86 µM |  |  | 1.84 µM | 3.89 µM

Reference: PubChem BioAssay (NCI)
